Common to all, as to assay: relative viability (nuclei count vs DMSO), 5 days (fraction); higher = more cells survive
Compound in the assay “AZ628 + Crizotinib”: CC1=C(C=C(C=C1)NC(=O)C2=CC(=CC=C2)C(C)(C)C#N)NC3=CC4=C(C=C3)N=CN(C4=O)C [AZ628] + C[C@@H](Oc1cc(-c2cnn(C3CCNCC3)c2)cnc1N)c1c(Cl)ccc(F)c1Cl [Crizotinib] (partner 1 µM)
The essentials:
(§1)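 Lung cancer cell lines in 1536-well plates got either a single drug or a fixed anchor-drug dose together with five library-drug doses (not always all listed) in √10 steps, by pin tool, on the day after seeding. Nuclei were counted after 5 days, and relative viability is the treated-to-vehicle ratio of nuclei counts. Values are medians of duplicate plates.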

Compound in assay [1]: C[As](C)SC[C@H](NC(=O)CC[C@H](N)C(=O)O)C(=O)NCC(=O)O [Darinaparsin] + CCNC(=O)c1noc(-c2cc(C(C)C)c(O)cc2O)c1-c1ccc(CN2CCOCC2)cc1 [Luminespib] (partner 0.01 µM)
The procedure, abridged: as §1

Compound in assay [2]: C[As](C)SC[C@H](NC(=O)CC[C@H](N)C(=O)O)C(=O)NCC(=O)O [Darinaparsin] + C[C@@H](Oc1cc(-c2cnn(C3CCNCC3)c2)cnc1N)c1c(Cl)ccc(F)c1Cl [Crizotinib] (partner 1 µM)
The essentials:
as §1

Compound in assay [3]: C[As](C)SC[C@H](NC(=O)CC[C@H](N)C(=O)O)C(=O)NCC(=O)O [Darinaparsin] + Nc1nc2[nH]cc(CCc3ccc(C(=O)N[C@@H](CCC(=O)O)C(=O)O)cc3)c2c(=O)[nH]1 [Pemetrexed] (partner 0.2 µM)
The essentials:
as §1

Take 201T: the relative viability with AZ628 + Crizotinib (first compound 0.08 µM) came to 1.05; with AZ628 + Crizotinib (first compound 0.253 µM), 0.999; with AZ628 + Crizotinib (first compound 0.8 µM), 1.06; with AZ628 + Crizotinib (first compound 2.53 µM), 1.06; with AZ628 + Crizotinib (first compound 8 µM), 1.08; in assay [1] (first compound 0.08 µM) it was 1.1. In addition, the relative viability in assay [1] (first compound 0.8 µM) was found to be 1.03; in assay [1] (first compound 2.53 µM) it was 0.958; in assay [1] (first compound 8 µM), 1.16; in assay [2] (first compound 0.08 µM), 1.09; in assay [2] (first compound 0.8 µM) it was 1.02; in assay [2] (first compound 2.53 µM), 1. Moreover, the relative viability worked out at 1.09 in assay [2] (first compound 8 µM); 0.374 in assay [3] (first compound 0.08 µM); 0.33 in assay [3] (first compound 0.8 µM); 0.33 in assay [3] (first compound 2.53 µM); 0.363 in assay [3] (first compound 8 µM).

As for A549, the relative viability with AZ628 + Crizotinib (first compound 0.08 µM) is 0.702; in the assay with AZ628 + Crizotinib (first compound 0.253 µM), 0.728; with AZ628 + Crizotinib (first compound 0.8 µM), 0.697; in the assay with AZ628 + Crizotinib (first compound 2.53 µM) it was 0.712; with AZ628 + Crizotinib (first compound 8 µM), 0.382; in assay [2] (first compound 0.08 µM), 1.33. The relative viability in assay [2] (first compound 0.8 µM) came to 0.891; in assay [2] (first compound 2.53 µM), 0.605; in assay [2] (first compound 8 µM), 0.985.

Take A-427: the relative viability was 0.641 with AZ628 + Crizotinib (first compound 0.08 µM); 0.74 in the assay with AZ628 + Crizotinib (first compound 0.253 µM); 0.69 with AZ628 + Crizotinib (first compound 0.8 µM); 0.665 with AZ628 + Crizotinib (first compound 2.53 µM); 0.251 with AZ628 + Crizotinib (first compound 8 µM); 1.24 in assay [1] (first compound 0.08 µM). Moreover, the relative viability was 0.967 in assay [1] (first compound 0.8 µM); 0.803 in assay [1] (first compound 2.53 µM); 1.4 in assay [1] (first compound 8 µM); 1.01 in assay [2] (first compound 0.08 µM); 0.902 in assay [2] (first compound 0.8 µM); 0.777 in assay [2] (first compound 2.53 µM). Besides, the relative viability is 1.1 in assay [2] (first compound 8 µM); 1.06 in assay [3] (first compound 0.08 µM); 0.934 in assay [3] (first compound 0.8 µM); 1.1 in assay [3] (first compound 2.53 µM); 1.02 in assay [3] (first compound 8 µM).

On to ABC-1, for which the relative viability with AZ628 + Crizotinib (first compound 0.08 µM) is 1.37; with AZ628 + Crizotinib (first compound 0.253 µM), 1.25; with AZ628 + Crizotinib (first compound 0.8 µM), 0.844; in the assay with AZ628 + Crizotinib (first compound 2.53 µM) it was 1.02; with AZ628 + Crizotinib (first compound 8 µM) it was 0.808; in assay [1] (first compound 0.08 µM), 0.358. The relative viability in assay [1] (first compound 0.8 µM) amounted to 0.608; in assay [1] (first compound 2.53 µM) it was 1.04; in assay [1] (first compound 8 µM) it was 0.676; in assay [2] (first compound 0.08 µM) it was 1.21; in assay [2] (first compound 0.8 µM), 1.16; in assay [2] (first compound 2.53 µM), 0.875. The relative viability in assay [2] (first compound 8 µM) was determined as 1.29.

Regarding BEN, the relative viability with AZ628 + Crizotinib (first compound 0.08 µM) is 0.98; with AZ628 + Crizotinib (first compound 0.253 µM), 0.881; with AZ628 + Crizotinib (first compound 0.8 µM), 0.698; with AZ628 + Crizotinib (first compound 2.53 µM) it was 0.966; with AZ628 + Crizotinib (first compound 8 µM) it was 0.825; in assay [1] (first compound 0.08 µM) it was 0.409. For the same cell line, the relative viability in assay [1] (first compound 0.8 µM) is 0.366; in assay [1] (first compound 2.53 µM) it was 0.511; in assay [1] (first compound 8 µM), 0.522; in assay [2] (first compound 0.08 µM), 0.956; in assay [2] (first compound 0.8 µM), 1.01; in assay [2] (first compound 2.53 µM) it was 0.741. The relative viability in assay [2] (first compound 8 µM) turned out to be 1.17; in assay [3] (first compound 0.08 µM), 0.873; in assay [3] (first compound 0.8 µM) it was 0.848; in assay [3] (first compound 2.53 µM) it was 0.818; in assay [3] (first compound 8 µM) it was 0.859.

Turning to CAL-12T, the relative viability came out at 0.871 in the assay with AZ628 + Crizotinib (first compound 0.08 µM); 0.565 with AZ628 + Crizotinib (first compound 0.8 µM); 0.622 with AZ628 + Crizotinib (first compound 2.53 µM); 0.361 in the assay with AZ628 + Crizotinib (first compound 8 µM); 0.182 in assay [1] (first compound 0.08 µM); 0.429 in assay [1] (first compound 0.8 µM). Moreover, the relative viability in assay [1] (first compound 2.53 µM) was 0.429; in assay [1] (first compound 8 µM), 0.761; in assay [2] (first compound 0.08 µM), 0.902; in assay [2] (first compound 0.8 µM), 0.752; in assay [2] (first compound 2.53 µM) it was 0.391; in assay [2] (first compound 8 µM), 0.707. Moreover, the relative viability came to 1.65 in assay [3] (first compound 0.08 µM), 1.08 in assay [3] (first compound 0.8 µM), 1.17 in assay [3] (first compound 2.53 µM) and 1.38 in assay [3] (first compound 8 µM).

Turning to COR-L23, the relative viability in the assay with AZ628 + Crizotinib (first compound 0.08 µM) stood at 0.619; in the assay with AZ628 + Crizotinib (first compound 0.253 µM), 0.736; with AZ628 + Crizotinib (first compound 0.8 µM), 0.666; with AZ628 + Crizotinib (first compound 2.53 µM) it was 0.59; in the assay with AZ628 + Crizotinib (first compound 8 µM) it was 0.365; in assay [1] (first compound 0.08 µM), 1.12. Moreover, the relative viability stood at 0.64 in assay [1] (first compound 0.8 µM); 0.661 in assay [1] (first compound 2.53 µM); 0.64 in assay [1] (first compound 8 µM); 0.818 in assay [2] (first compound 0.08 µM); 0.648 in assay [2] (first compound 0.8 µM); 0.601 in assay [2] (first compound 2.53 µM). Besides, the relative viability in assay [2] (first compound 8 µM) stood at 0.661; in assay [3] (first compound 0.08 µM), 0.198; in assay [3] (first compound 0.8 µM), 0.209; in assay [3] (first compound 2.53 µM), 0.18; in assay [3] (first compound 8 µM), 0.2.

With COR-L 105, the relative viability in the assay with AZ628 + Crizotinib (first compound 0.08 µM) was 1.07; with AZ628 + Crizotinib (first compound 0.253 µM), 0.728; with AZ628 + Crizotinib (first compound 0.8 µM), 0.744; with AZ628 + Crizotinib (first compound 2.53 µM), 0.757; with AZ628 + Crizotinib (first compound 8 µM) it was 0.438; in assay [1] (first compound 0.08 µM), 0.867. Further, the relative viability was 0.775 in assay [1] (first compound 0.8 µM); 0.712 in assay [1] (first compound 2.53 µM); 0.682 in assay [1] (first compound 8 µM); 0.745 in assay [2] (first compound 0.08 µM); 0.687 in assay [2] (first compound 0.8 µM); 0.866 in assay [2] (first compound 8 µM). The relative viability in assay [3] (first compound 0.08 µM) amounted to 1.39; in assay [3] (first compound 0.8 µM), 1.21; in assay [3] (first compound 2.53 µM) it was 0.913; in assay [3] (first compound 8 µM), 1.27.

Calu-6: the relative viability was determined as 0.753 with AZ628 + Crizotinib (first compound 0.08 µM); 0.678 in the assay with AZ628 + Crizotinib (first compound 0.253 µM); 0.605 with AZ628 + Crizotinib (first compound 0.8 µM); 0.577 with AZ628 + Crizotinib (first compound 2.53 µM); 0.153 with AZ628 + Crizotinib (first compound 8 µM); 1.17 in assay [2] (first compound 0.08 µM). Further, the results for the relative viability in assay [2] (first compound 0.8 µM), in assay [2] (first compound 2.53 µM) and in assay [2] (first compound 8 µM) were 0.857, 0.665 and 0.751, respectively.

The record behind these values is the supplement of paper PMC10307832.
